Measured values from patent US12071441B2, “10-(di(phenyl)methyl)-4-hydroxy-8,9,9A,10-tetrahydro-7H-pyrrolo[1′,2′:4,5]pyrazino[1,2-b]pyridazine-3,5-dione derivatives and related compounds as inhibitors of the orthomyxovirus replication for treating influenza” (Novartis AG, priority 2018, dated 2024).

Tests used:
Experiment in all cases: microbe, parasite or virus in culture
Assay type in all cases: cell-based
[1] = system: influenza A virus minigenome (PB2, PB1, PA, NP; luciferase reporter) in 293T cells, RNP_Hubei; details: HEK-293T, 48 h
[2] = system: influenza A virus minigenome (PB2, PB1, PA, NP; luciferase reporter) in 293T cells, RNP_CAL; details: HEK-293T, 48 h, read-out: RNP_CAL_EC50
[3] = system: influenza A virus minigenome (PB2, PB1, PA, NP; luciferase reporter) in 293T cells, RNP_Alaska; details: HEK-293T, 48 h

Row | Structure (SMILES) | EC50 [1] [nM] | EC50 [2] [nM] | EC50 [3] [nM]
1 | COCCOC(=O)Oc1c2n(ncc1=O)[C@@H]([C@H](c1ccccc1)c1cccc(F)c1F)[C@H]1CCCN1C2=O [Example 50, (9aR,10S)-10-((R)-(2,3-difluorophenyl)(phenyl)methyl)-3,5-dioxo-3,5,8,9,9a,10-hexahydro-7H-pyrrolo[1′,2′:4,5]pyrazino[1,2-b]pyridazin-4-yl (2-methoxyethyl) carbonate] | < 100 | < 100 | < 100
2 | CCOC(=O)OCOc1c2n(ncc1=O)[C@@H]([C@H](c1ccccc1)c1cccc(F)c1F)[C@H]1CCCN1C2=O [Example 51, (((9aR,10S)-10-((R)-(2,3-difluorophenyl)(phenyl)methyl)-3,5-dioxo-3,5,8,9,9a,10-hexahydro-7H-pyrrolo[1′,2′:4,5]pyrazino[1,2-b]pyridazin-4-yl)oxy)methyl ethyl carbonate] | < 100 | < 100 | < 100
3 | CC(C)OC(=O)OCOc1c2n(ncc1=O)[C@@H]([C@H](c1ccccc1)c1cccc(F)c1F)[C@H]1CCCN1C2=O [Example 52, (((9aR,10S)-10-((R)-(2,3-difluorophenyl)(phenyl)methyl)-3,5-dioxo-3,5,8,9,9a,10-hexahydro-7H-pyrrolo[1′,2′:4,5]pyrazino[1,2-b]pyridazin-4-yl)oxy)methyl isopropyl carbonate] | < 100 | < 100 | < 100
4 | CCOC(=O)Oc1c2n(ncc1=O)[C@@H]([C@H](c1ccccc1)c1cccc(F)c1F)[C@H]1CCCN1C2=O [Example 53, (9aR,10S)-10-((R)-(2,3-difluorophenyl)(phenyl)methyl)-3,5-dioxo-3,5,8,9,9a,10-hexahydro-7H-pyrrolo[1′,2′:4,5]pyrazino[1,2-b]pyridazin-4-yl ethyl carbonate] | < 100 | < 100 | < 100
5 | CC(C)(C)OC(=O)OCOc1c2n(ncc1=O)[C@@H]([C@H](c1ccccc1)c1cccc(F)c1F)[C@H]1CCCN1C2=O [Example 55, tert-butyl ((((9aR,10S)-10-((R)-(2,3-difluorophenyl)(phenyl)methyl)-3,5-dioxo-3,5,8,9,9a,10-hexahydro-7H-pyrrolo[1′,2′:4,5]pyrazino[1,2-b]pyridazin-4-yl)oxy)methyl) carbonate] | < 100 | 100 to 1000 | 100 to 1000
6 | CCOC(=O)OC(C)Oc1c2n(ncc1=O)[C@@H]([C@H](c1ccccc1)c1cccc(F)c1F)[C@H]1CCCN1C2=O (stereo partly drawn) [Example 56, 1-(((9aR,10S)-10-((R)-(2,3-difluorophenyl)(phenyl)methyl)-3,5-dioxo-3,5,8,9,9a,10-hexahydro-7H-pyrrolo[1′,2′:4,5]pyrazino[1,2-b]pyridazin-4-yl)oxy)ethyl ethyl carbonate] | < 100 | 100 to 1000 | 100 to 1000
7 | CN(C)C(=O)OCOc1c2n(ncc1=O)[C@@H]([C@H](c1ccccc1)c1cccc(F)c1F)[C@H]1CCCN1C2=O [Example 57, (((9aR,10S)-10-((R)-(2,3-difluorophenyl)(phenyl)methyl)-3,5-dioxo-3,5,8,9,9a,10-hexahydro-7H-pyrrolo[1′,2′:4,5]pyrazino[1,2-b]pyridazin-4-yl)oxy)methyl dimethylcarbamate] | < 100 | < 100 | < 100
8 | CC(=O)Oc1c2n(ncc1=O)[C@@H]([C@H](c1ccccc1)c1cccc(F)c1F)[C@H]1CCCN1C2=O [Example 58, (9aR,10S)-10-((R)-(2,3-difluorophenyl)(phenyl)methyl)-3,5-dioxo-3,5,8,9,9a,10-hexahydro-7H-pyrrolo[1′,2′:4,5]pyrazino[1,2-b]pyridazin-4-yl acetate] | < 100 | < 100 | < 100
9 | CCC(=O)Oc1c2n(ncc1=O)[C@@H]([C@H](c1ccccc1)c1cccc(F)c1F)[C@H]1CCCN1C2=O [Example 59, (9aR,10S)-10-((R)-(2,3-difluorophenyl)(phenyl)methyl)-3,5-dioxo-3,5,8,9,9a,10-hexahydro-7H-pyrrolo[1′,2′:4,5]pyrazino[1,2-b]pyridazin-4-yl propionate] | < 100 | < 100 | < 100
10 | CC(C)CC(=O)Oc1c2n(ncc1=O)[C@@H]([C@H](c1ccccc1)c1cccc(F)c1F)[C@H]1CCCN1C2=O [Example 60, (9aR,10S)-10-((R)-(2,3-difluorophenyl)(phenyl)methyl)-3,5-dioxo-3,5,8,9,9a,10-hexahydro-7H-pyrrolo[1′,2′:4,5]pyrazino[1,2-b]pyridazin-4-yl 3-methylbutanoate] | < 100 | < 100 | < 100
11 | COCCC(=O)Oc1c2n(ncc1=O)[C@@H]([C@H](c1ccccc1)c1cccc(F)c1F)[C@H]1CCCN1C2=O [Example 61, (9aR,10S)-10-((R)-(2,3-difluorophenyl)(phenyl)methyl)-3,5-dioxo-3,5,8,9,9a,10-hexahydro-7H-pyrrolo[1′,2′:4,5]pyrazino[1,2-b]pyridazin-4-yl 3-methoxypropanoate] | < 100 | < 100 | < 100
12 | CC(C)(C)C(=O)Oc1c2n(ncc1=O)[C@@H]([C@H](c1ccccc1)c1cccc(F)c1F)[C@H]1CCCN1C2=O [Example 62, (9aR,10S)-10-((R)-(2,3-difluorophenyl)(phenyl)methyl)-3,5-dioxo-3,5,8,9,9a,10-hexahydro-7H-pyrrolo[1′,2′:4,5]pyrazino[1,2-b]pyridazin-4-yl pivalate] | < 100 | < 100 | < 100
13 | CC(C)(C)C(=O)OCOc1c2n(ncc1=O)[C@@H]([C@H](c1ccccc1)c1cccc(F)c1F)[C@H]1CCCN1C2=O [Example 63, (((9aR,10S)-10-((R)-(2,3-difluorophenyl)(phenyl)methyl)-3,5-dioxo-3,5,8,9,9a,10-hexahydro-7H-pyrrolo[1′,2′:4,5]pyrazino[1,2-b]pyridazin-4-yl)oxy)methyl pivalate] | < 100 | < 100 | < 100
14 | CCN(CC)C(=O)OCOc1c2n(ncc1=O)[C@@H]([C@H](c1ccccc1)c1cccc(F)c1F)[C@H]1CCCN1C2=O [Example 67, (((9aR,10S)-10-((R)-(2,3-difluorophenyl)(phenyl)methyl)-3,5-dioxo-3,5,8,9,9a,10-hexahydro-7H-pyrrolo[1′,2′:4,5]pyrazino[1,2-b]pyridazin-4-yl)oxy)methyl diethylcarbamate] | ≥ 1000 | ≥ 1000 | ≥ 1000
15 | CCN(C)C(=O)OCOc1c2n(ncc1=O)[C@@H]([C@H](c1ccccc1)c1cccc(F)c1F)[C@H]1CCCN1C2=O [Example 68, (((9aR,10S)-10-((R)-(2,3-difluorophenyl)(phenyl)methyl)-3,5-dioxo-3,5,8,9,9a,10-hexahydro-7H-pyrrolo[1′,2′:4,5]pyrazino[1,2-b]pyridazin-4-yl)oxy)methyl ethyl(methyl)carbamate] | ≥ 1000 | ≥ 1000 | ≥ 1000
16 | O=C(Oc1c2n(ncc1=O)[C@@H]([C@H](c1ccccc1)c1cccc(F)c1F)[C@H]1CCCN1C2=O)c1ccccc1 [Example 69, (9aR,10S)-10-((R)-(2,3-difluorophenyl)(phenyl)methyl)-3,5-dioxo-3,5,8,9,9a,10-hexahydro-7H-pyrrolo[1′,2′:4,5]pyrazino[1,2-b]pyridazin-4-yl benzoate] | < 100 | < 100 | < 100
